Source: patent US20110059947A1, “ALPHA 7 NICOTINIC AGONISTS AND ANTIPSYCHOTICS” (Targacept, Inc., priority 2008, published 2011)
Where “and” joins values, the source holds several entries; their conditions need not be identical. Equal values may be shown once.

Legend:
human muscle receptors = biological target: T1, human muscle receptors (Homo sapiens, UniProt P02708+P07510+Q07001); experiment: Muscle function (Ca++ flux), TE-671 cells; assay type: cell-based; conditions: human TE-671 cells, % of nicotine's Emax
T1 construct: expressed in appropriate rat and human cell lines; endogenous in cells

human α4β2 receptors = biological target: T2, human α4β2 receptors (Homo sapiens, UniProt P17787+P43681); experiment: [3H]-(S)-nicotine competition binding in SH-EP1 cellular membranes; conditions: SH-EP1 cells
T2 construct: expressed in transfected cells; host or cells: SH-EP1

Sprague-Dawley rats = experiment: Apomorphine-induced impairment of pre-pulse inhibition; assay type: in vivo, rat; conditions: Compound A 0.3 mg/kg s.c., apomorphine 1.0 mg/kg s.c., p<0.001
[1] = tested on: non-nicotinic receptor classes; experiment: Broad receptor selectivity battery (Novascreen); conditions: criterion: inhibition of receptor-selective ligand binding >50% at 10 μM
human ganglion receptors = experiment: Ganglion function (Ca++ flux), SH-SY5Y cells; assay type: cell-based; conditions: % of nicotine's Emax
human α4β2 sub-type = biological target: T3, human α4β2 sub-type (Homo sapiens, UniProt P17787+P43681); experiment: Functional activation in Xenopus oocytes (electrophysiology); assay type: cell-based
T3 construct: expressed in transfected cells; host or cells: Xenopus oocytes

rats = experiment: Novel object recognition (NOR) in rats; assay type: in vivo, rat
Description: The object recognition model is based on a rodent's spontaneous tendency to explore novel aspects of their environment and this exploratory activity can be an index for memory function (Ennaceur and Delacour, 1988). The NOR test measures the capacity to recognize an object presented on two occasions, some time apart. The test arena consisted of a 17.5×17.5″ clear Plexiglas™ with walls 12″ in height. The arena was enclosed in an opaque, sound-attenuating chamber and the doors (opening to the front side) remained open. […] On the first two days of this sub-acute dosing paradigm, administrations were followed 30 minutes later by an exploratory (habituation) trial (6 minutes) on Day 1 (no objects) and object recognition acquisition trial (3 minutes) on Day 2 (2 of the same objects). On the third day the final OR trial, or recall trial (3 minutes; one familiar, one novel object) was started at either 30 min, 2 h, 6 h, 18 h or 24 h after compound administration. For the recall trial, a video camera was positioned approximately 36″ from the unshielded side of the arena for videotaping of the animals' behaviors. These behaviors were subsequently hand-scored by a blinded observer assessing the time spent exploring a novel (object B) versus a familiar (object A) object during this recall exposure trial. Absolute exploration time for each object was recorded, and a % recognition index was calculated as follows: % RI=[(time investigating novel object)/(total time investigating both novel+familiar objects)] […] Where significant overall effects were found, post-hoc analyses were performed. P<0.05 was considered significant.

sigma site 2 = biological target: T4, sigma site 2 (Homo sapiens, UniProt Q5BJF2); experiment: Sigma site 2 binding (Novascreen)
T4 construct: Novascreen

5HT3 receptors [2] = biological target: T5, 5HT3 receptors (Mus musculus, UniProt P23979); experiment: 5HT3 receptor radioligand binding, mouse receptor; conditions: 10 μM
T5 sequence (P23979 24-489): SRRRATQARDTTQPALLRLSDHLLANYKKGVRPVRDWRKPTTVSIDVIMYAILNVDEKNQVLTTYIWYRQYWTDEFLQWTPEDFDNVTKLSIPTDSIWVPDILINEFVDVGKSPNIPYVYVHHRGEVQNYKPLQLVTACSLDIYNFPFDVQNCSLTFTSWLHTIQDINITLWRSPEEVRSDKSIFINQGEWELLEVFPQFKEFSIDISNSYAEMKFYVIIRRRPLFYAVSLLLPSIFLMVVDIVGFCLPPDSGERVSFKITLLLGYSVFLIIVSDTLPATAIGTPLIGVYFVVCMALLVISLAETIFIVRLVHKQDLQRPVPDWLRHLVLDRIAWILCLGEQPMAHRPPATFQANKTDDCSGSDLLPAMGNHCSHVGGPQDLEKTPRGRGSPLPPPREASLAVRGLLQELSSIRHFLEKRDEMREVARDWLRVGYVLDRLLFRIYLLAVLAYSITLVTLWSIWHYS

opioid receptor = conditions: read-out: Ki opioid site; dose-response assessment
5HT3 receptors [3] = biological target: T6, 5HT3 receptors (Homo sapiens, UniProt P46098); experiment: Functional activation at the human 5HT3 receptor; assay type: cell-based; conditions: read-out: maximal response, functional activation of human 5HT3 receptor
T6 sequence (P46098 24-478): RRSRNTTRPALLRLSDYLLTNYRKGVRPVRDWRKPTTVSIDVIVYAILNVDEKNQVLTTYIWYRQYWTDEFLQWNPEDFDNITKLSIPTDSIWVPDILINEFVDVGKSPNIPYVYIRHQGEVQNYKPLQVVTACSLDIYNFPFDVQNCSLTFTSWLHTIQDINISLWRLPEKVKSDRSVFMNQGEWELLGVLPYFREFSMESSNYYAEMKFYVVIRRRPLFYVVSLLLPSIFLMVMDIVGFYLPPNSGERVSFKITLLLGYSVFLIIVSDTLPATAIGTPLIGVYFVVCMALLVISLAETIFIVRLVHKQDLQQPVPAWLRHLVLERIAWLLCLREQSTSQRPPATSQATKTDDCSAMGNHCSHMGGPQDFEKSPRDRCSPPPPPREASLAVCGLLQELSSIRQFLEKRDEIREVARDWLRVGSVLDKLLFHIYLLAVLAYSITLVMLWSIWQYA

rat ganglion receptors = experiment: Ganglion function (Ca++ flux), PC-12 Shooter cells; assay type: cell-based; conditions: rat PC-12 Shooter cells, % of nicotine's Emax
th(tk-)/th(tk-) mice = experiment: Prepulse inhibition (PPI) and acoustic startle in th(tk-)/th(tk-) and control mice; assay type: in vivo
5HT3 receptors [4] = biological target: T6, 5HT3 receptors; experiment: 5HT3 receptor radioligand binding, human receptor; conditions: 10 μM

O=C(N[C@@H]1C2CCN(CC2)[C@H]1Cc1cccnc1)c1cc2ccccc2o1 [Compound A, (2S,3R)—N-(2-((3-pyridinyl)methyl)-1-azabicyclo[2.2.2]oct-3-yl)benzofuran-2-carboxamide]
Muscle Function (Ca++ flux) % nicotine @ 10 uM (human muscle receptors; 10 uM): 5 % nicotine and 5 ± 2 % nicotine | Muscle Function (Ca++ flux) % nicotine @ 100 uM (human muscle receptors; 100 uM): 12 % nicotine and 12 ± 7 % nicotine | Ki (human α4β2 receptors): 2800 nM | PPI deficits induced by apomorphine (Sprague-Dawley rats): significantly reversed PPI deficits | interactions with other non-nicotinic receptor classes [1]: minimal interactions | Ganglion Function (Ca++ flux) % nicotine @ 10 uM (human ganglion receptors; 10 uM): 6 % nicotine and 6 ± 2 % nicotine | Ganglion Function (Ca++ flux) % nicotine @ 100 uM (human ganglion receptors; 100 uM): 11 % nicotine and 11 ± 1 % nicotine | activation of human α4β2 (human α4β2 sub-type): no detectable activation | decreases in subsequent control responses to ACh (α4β2) (human α4β2 sub-type): no significant decreases | time investigating novel versus familiar object (rats; rats, 0.3 mg/kg, 30 min, 2 h, 6 h and 18 h after final sub-acute (q.d. x3 days) administration): significantly more time investigating the novel object than the familiar object | time spent investigating the novel object (rats; rats, 0.3, 1 and 10 mg/kg p.o., 30 minutes after 3rd q.d. administration): significantly increased the time spent investigating the novel object | duration of working memory facilitation after third sub-acute daily administration (rats; young rats, 0.3 mg/kg): up to 18 hours | inhibition of ligand binding, sigma site 2 (sigma site 2; 10 μM): 79 % inhibition | Ki (sigma site 2; dose-response assessment): 13 µM | inhibition of radioligand binding at 5HT3, mouse receptor (5HT3 receptors [2]): 59 % inhibition | Ki (opioid receptor): 13 µM | Emax at 100 µM (5HT3 receptors [3]): 15% | Ganglion Function (Ca++ flux) % nicotine @ 10 uM (rat ganglion receptors; 10 uM): 11 % nicotine and 11 ± 6 % nicotine | Ganglion Function (Ca++ flux) % nicotine @ 100 uM (rat ganglion receptors; 100 uM): 20 % nicotine and 20 ± 8 % nicotine | PPI or startle (th(tk-)/th(tk-) mice; Compound A 0.1 mg/kg given individually): little effect | PPI (th(tk-)/th(tk-) mice; control (wild type) mice, Compound A): no effect on control | startle response (th(tk-)/th(tk-) mice; th(tk-)/th(tk-) mice, Compound A): normalizes startle response | deficits in PPI (th(tk-)/th(tk-) mice; th(tk-)/th(tk-) mice, Compound A (0.1 and 0.3 mg/kg analyzed)): reverse deficits in PPI | PPI, main effect (th(tk-)/th(tk-) mice; transgenic th(tk-)/th(tk-) mice, Compound A 0.1 mg/kg alone): no significant main effect | inhibition of radioligand binding at 5HT3, human receptor (5HT3 receptors [4]): 25 % inhibition
